Reference: patent US10253041B2, “7-phenylethylamino-4H-pyrimido[4,5-d][1,3]oxazin-2-one compounds and their use as mutant IDH1 inhibitors” (Eli Lilly and Company, priority 2015, dated 2019)
Structures can show the parent of a compound that is named as a salt. Where two headings read alike, the source gives them in different places.

Tests used:
[1] = tested on: IDH1 mutant R132C in fibrosarcoma cell line HT1080; experiment: HT1080 cell assay (intracellular 2HG and αKG); type: cell-based; settings: Homo sapiens, 1 hour + 18 hours incubation
Procedure: (§1) To test the cellular inhibition of IDH1 mutant R132C, the fibrosarcoma cell line HT1080 (purchased from ATCC) is used. For testing cell-based inhibition of the R132H mutation, the U87MG glioma cell line (ATCC) was stably transfected with a DNA construct expressing the R132H mutant enzyme.
Fifteen thousand cells are plated in poly-D-lys coated 96 well plates (15,000 cells/well) 18-24 hours prior to treatment with compounds. Four hours prior to compound treatment, cells are glutamine-starved by removing normal media and replacing with glutamine-free media. Following starvation, cells are then treated with different concentrations of test compounds (20 μM to 1 nM) dissolved in glutamine free media containing DMSO at a final concentration of 0.2%. The initial compound incubation is for 1 hour at 37° C./5% CO2. After 1 hour, glutamine is added to a final 2 mM concentration and the treated cells are then incubated for a further 18 hours at 37° C./5% CO2. Following the 18 hour incubation, intracellular 2HG and αKG are analyzed in cell lysates. Lysates are prepared following removal of media and addition of buffer containing 25 mM Tris-HCl pH 7.5, 150 mM NaCl, 1 mM EDTA, 1 mM EGTA/1% Triton-X 100 to the cells. An aliquot of lysate is added to a mix of d6-αKG and d5-3HG as internal standards and the mixture is treated with O-benzylhydroxylamine in the presence of N-(3-dimethylaminopropyl)-N′-ethylcarbodiimide hydrochloride (EDC) and pyridine. Analyte derivatives are then extracted with EtOAc, dried, and then reconstituted with 50% MeOH in H2O. Samples prepared as described are injected into the HPLC to separate 2HG and αKG derivatives (and corresponding internal standards) using a reverse phase chromatography in a C18 column. Analysis of the samples is carried out using a 6460 triple quadrupole mass spectrometer (G6460A Agilent). The 2HG and αKG signals detected are transformed into analyte concentration using the ratio of αKG/d6-αKG and the ratio of 2HG/d5-3HG that is extrapolated within a calibration curve. Percent inhibition for each individual sample is obtained after normalizing calculated 2HG or aKG concentration to maximum and minimum references obtained in the presence and in the absence of glutamine during cell treatment with compounds. IC50 values are obtained from individual % inhibition using a sigmoidal dose-response 4-parameter equation. These calculations are carried out automatically using Activity Base (IDBS) or Screener (Genedata) data analysis programs.

IDH1/R132C = target: T1, IDH1/R132C (Homo sapiens, UniProt O75874, R132C); experiment: Biochemical assay for IDH1 R132C mutant enzyme (2HG by RapidFire MS); settings: mean ± standard deviation of the mean; 90 minutes reaction
T1 construct: His-tag (N); made in house; host or cells: E. coli
T1 sequence (O75874 whole entry R132C): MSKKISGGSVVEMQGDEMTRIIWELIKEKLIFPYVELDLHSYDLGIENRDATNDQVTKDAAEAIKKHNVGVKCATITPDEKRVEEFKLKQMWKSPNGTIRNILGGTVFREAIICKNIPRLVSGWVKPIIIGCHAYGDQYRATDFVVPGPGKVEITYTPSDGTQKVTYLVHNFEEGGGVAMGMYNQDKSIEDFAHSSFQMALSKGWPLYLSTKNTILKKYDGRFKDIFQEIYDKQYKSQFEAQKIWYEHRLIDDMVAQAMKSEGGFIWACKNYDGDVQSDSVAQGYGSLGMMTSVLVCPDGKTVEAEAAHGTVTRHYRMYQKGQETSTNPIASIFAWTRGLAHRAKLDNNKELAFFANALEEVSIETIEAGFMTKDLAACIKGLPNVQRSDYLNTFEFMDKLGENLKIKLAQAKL
Procedure: (§2) IDH1-R132H, IDH1-R132C, IDH2-R172K and IDH2-R140Q mutant enzymes catalyze the conversion of αKG to 2HG. 2HG is analyzed using in-line solid phase extraction and mass spectrometry. This analysis is carried out in a RapidFire® instrument coupled to a 6460 triple quadrupole mass spectrometer (G6460A Agilent).
(§3) IDH1 mutant (R132H and R132C) and IDH2 mutant (R140Q and R172K) proteins containing N-terminal His-tag are expressed in E. coli and purified using nickel affinity chromatography. The enzyme assays are carried out in V-bottom 96 well polypropylene plates containing 100 mM Tris-HCl buffer, 1 mM DTT, 0.005% TRITON™ X-100, 120 mM NaCl. For IDH1 R132H, α-ketoglutarate, NADPH and MnCl2 are included at final concentrations of 300 μM, 2.5 μM and 300 μM respectively. For IDH1 R132C, α-ketoglutarate, NADPH and MnCl2 are included at final concentrations of 100 μM, 10 μM and 100 μM respectively. For IDH2 R172K, α-ketoglutarate, NADPH and MnCl2 are included at final concentrations of 150 μM, 10 μM and 150 μM respectively. For IDH2 R140Q, α-ketoglutarate, NADPH and MnCl2 are included at final concentrations of 3000 μM, 10 μM and 100 μM respectively. Final pH=7.0. Test compound dissolved in DMSO stock is diluted in the reaction mix at a final DMSO concentration of 4%. Compounds are tested in dose-response format. The assay is started by addition of enzyme. Enzymes are used at the following final concentrations: IDH1 R132H, 2 nM; IDH1 R132C, 0.5 nM; IDH2 R172K, 1.2 nM; IDH2 R140Q, 1.2 nM. After 90 minutes the reaction is quenched by adding ACN (50:50) containing 3-hydroxy-1,5-pentanedioic-2,2,3,4,4-d5 acid (5d5-3HG) as an internal standard for mass spectrometry analysis and quantitation of reaction product. 2-Hydroxyglutarate (2HG) in quenched samples is separated using strong anionic exchange column chromatography (Phenomenex Strata-X-A SecurityGuard) and analyzed by mass spectrometry in a 6460 triple quadrupole mass spectrometer (G6460A Agilent). The 2HG signal detected is transformed into an analyte concentration using a calibration curve generated using known 2HG concentrations. […] IC50 values are obtained from the individual % inhibition values at different compound concentrations using a 4-parameter equation. These calculations are carried out using Activity Base (IDBS) or Screener (Genedata) data analysis programs.

IDH1/R132H = target: T2, IDH1/R132H (Homo sapiens, UniProt O75874, R132H); experiment: Biochemical assay for IDH1 R132H mutant enzyme (2HG by RapidFire MS); settings: mean ± standard deviation of the mean; 90 minutes reaction
T2 construct: His-tag (N); made in house; host or cells: E. coli
T2 sequence (O75874 whole entry R132H): as the sequence (O75874 whole entry R132C) above, with C132H counted along it
Procedure: as §2, §3

[2] = tested on: IDH1/R132H in U87MG glioma cells; experiment: U87MG/IDH1R132H cell assay (intracellular 2HG); type: cell-based; settings: Homo sapiens, U-87 MG, 19 h, 1 hour + 18 hours incubation, read-out: U87MG (IDH1/R132H 2-hydroxyglutarate IC50)
Procedure: as §1
Cells are plated in poly-D-lys coated 96 well plates (12,000 cells/well) 18-24 hours previous to treatment with compounds. Four hours prior to compound treatment, cells are glutamine-starved by removing normal media and replacing with glutamine-free media. Following starvation, cells are then treated with different concentrations of test compounds (20 μM to 1 nM) dissolved in glutamine free media containing DMSO at a final concentration of 0.2%. The initial compound incubation is for 1 hour at 37° C./5% CO2. After 1 hour, glutamine is added to a final 2 mM concentration and the treated cells are then incubated for a further 18 hours at 37° C./5% CO2. Intracellular 2HG is analyzed in cell lysates obtained after media removal and treatment with lysis buffer (25 mM Tris-HCl pH 7.5, 150 mM NaCl, 1 mM EDTA, 1 mM EGTA/1% Triton-X 100). Cell lysates are conserved at −80° C. until processing. For analyte extraction, an aliquot of thawed lysate is transferred to a deep 96-well plate and treated with cold MeOH containing d5-3HG as an internal standard followed by chloroform and H2O (1:4:3:2). The upper phase is collected after separation and injected in HPLC to separate 2HG (and internal standard) using hydrophilic interaction (HILIC) chromatography coupled to MS/MS detection in a 6460 triple quadrupole mass spectrometer. Percent inhibition for each individual sample is obtained after normalizing calculated 2HG concentration to maximum and minimum references obtained in the presence and in the absence of glutamine during cell treatment with compounds. IC50 values are obtained from individual % inhibition using a sigmoidal dose-response 4-parameter equation. These calculations are carried out automatically using Activity Base (IDBS) or Screener (Genedata) data analysis programs.

[3] = HT-1080, 19 h, intracellular 2HG, read-out: HT1080 (R132C, 2-hydroxyglutarate) IC50
[4] = HT-1080, intracellular αKG, read-out: HT1080 (R132C, αKG) IC50

SMILES | IC50 [1, 3] | IC50 [1, 4] | IC50 (IDH1/R132C) | IC50 (IDH1/R132H) | IC50 [2]
C=CC(=O)N1CCN(c2ccc([C@H](C)Nc3ncc4c(n3)N(CC)C(=O)OC4)cc2)CC1 [Example 18, 1-Ethyl-7-[[(1S)-1-[4-(4-prop-2-enoylpiperazin-1-yl)phenyl]ethyl]amino]-4H-pyrimido[4,5-d][1,3]oxazin-2-one] | 380 ± 130 nM | > 20000 nM | 192 nM | 211 nM | 70.7 nM
C=CC(=O)N1CCN(Cc2ccc([C@H](C)Nc3ncc4c(n3)N(CC)C(=O)OC4)cc2)CC1 [Example 23, 1-Ethyl-7-[[(1S)-1-[4-[(4-prop-2-enoylpiperazin-1-yl)methyl]phenyl]ethyl]amino]-4H-pyrimido[4,5-d][1,3]oxazin-2-one 4-hydroxybenzoic acid salt] | 32.1 ± 13.6 nM | > 20000 nM | 234 ± 67 nM | 188 ± 48 nM | 9.03 ± 0.75 nM
